Data from patent US10131652B2, “Pyrimidinyloxy benzene derivatives as herbicides” (E. I. DU PONT DE NEMOURS AND COMPANY, priority 2014, dated 2018).

Legend:
Format in all cases: in vivo
[1] = test system: small-flower umbrella sedge (Cyperus difformis); test: Test C flooded paddy test plant response; details: Flood, 250 g ai/ha; scale of 0 to 100 where 0 is no effect and 100 is complete control; 13 to 15 days
Method in brief: (§1)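 Plants grown to the 2-leaf stage; pots flooded to 3 cm above soil, test compounds applied directly to paddy water, depth maintained throughout. Greenhouse for 13 to 15 days, then visual rating versus controls on a 0–100 scale (0 no effect, 100 complete control).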

[2] = test system: barnyardgrass (Echinochloa crus-galli); test: Test C flooded paddy test plant response; details: Flood, 250 g ai/ha; scale of 0 to 100 where 0 is no effect and 100 is complete control; 13 to 15 days
Method in brief: as §1

[3] = test system: ducksalad (Heteranthera limosa); test: Test C flooded paddy test plant response; details: Flood, 250 g ai/ha; scale of 0 to 100 where 0 is no effect and 100 is complete control; 13 to 15 days
Method in brief: as §1

rice (Oryza sativa) = test: Test C flooded paddy test plant response; details: Flood, 250 g ai/ha; scale of 0 to 100 where 0 is no effect and 100 is complete control; 13 to 15 days
Method in brief: as §1

corn (Zea mays) = test: Test B pre-/postemergence plant response
Method in brief: (§2)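 Greenhouse pots, loam/sand soil; compound formulated with surfactant in non-phytotoxic solvent. Preemergence soil spray and postemergence spray at 1–2 leaf stage run simultaneously. Visual injury, 0–100, about 10 days post-treatment.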

[4] = test system: pigweed (Amaranthus retroflexus); test: Test B pre-/postemergence plant response
Method in brief: as §2

[5] = test system: barnyardgrass (Echinochloa crus-galli); test: Test B pre-/postemergence plant response
Method in brief: as §2

[6] = test system: giant foxtail (Setaria faberii); test: Test B pre-/postemergence plant response
Method in brief: as §2

[7] = test system: wheat (Triticum aestivum); test: Test B pre-/postemergence plant response
Method in brief: as §2

[8] = test system: johnsongrass (Sorghum halepense); test: Test D pre-/postemergence plant response; details: Postemergence; for Plant response rating, Johnsongrass: scale 0 to 100, 0 no effect, 100 complete control
Method in brief: (§3)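 Sown seed (loam/sand soil) treated preemergence; emerged plants, 1- to 4-leaf stage and 2 to 18 cm, treated postemergence in peat/vermiculite medium. Greenhouse incubation 13–15 d. Endpoint: visual 0–100 rating versus untreated.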

[9] = test system: blackgrass (Alopecurus myosuroides); test: Test D pre-/postemergence plant response; details: Postemergence; for Plant response rating, Blackgrass: scale 0 to 100, 0 no effect, 100 complete control
Method in brief: as §3

[10] = test system: winter wheat (Triticum aestivum); test: Test D pre-/postemergence plant response; details: Postemergence
Method in brief: as §3

[11] = test system: lambsquarters (Chenopodium album); test: Test D pre-/postemergence plant response; details: Postemergence
Method in brief: as §3

[12] = test system: velvetleaf (Abutilon theophrasti); test: Test D pre-/postemergence plant response; details: Postemergence
Method in brief: as §3

[13] = test system: large (Lg) crabgrass (Digitaria sanguinalis); test: Test D pre-/postemergence plant response; details: Postemergence; for Plant response rating, Crabgrass, Large: scale 0 to 100, 0 no effect, 100 complete control
Method in brief: as §3

[14] = test system: galium (catchweed bedstraw, Galium aparine); test: Test D pre-/postemergence plant response; details: Postemergence; for Plant response rating, Galium: scale 0 to 100, 0 no effect, 100 complete control
Method in brief: as §3

[15] = 125 g ai/ha, postemergence, 0 to 100 scale, 0 no effect, 100 complete control
[16] = Postemergence, 31 g ai/ha, 0 to 100 scale (0 no effect, 100 complete control)
[17] = 31 g ai/ha, Preemergence, 0 to 100 scale where 0 is no effect and 100 is complete control
[18] = Preemergence, 125 g ai/ha, 0 to 100 scale (0 no effect, 100 complete control)
[19] = 31 g ai/ha, scale 0 to 100 (0 no effect, 100 complete control)
[20] = 62 g ai/ha, scale 0 to 100, 0 no effect, 100 complete control
[21] = 125 g ai/ha, scale 0 to 100, 0 no effect, 100 complete control

## CC(F)(F)c1cc(-c2ccccc2Oc2ncc(Cl)cn2)no1 [Compound 220]
[1]
  Sedge, Umbrella plant response rating: 75
[2]
  Barnyardgrass plant response rating: 20
[3]
  Ducksalad plant response rating: 80
Rice (Oryza sativa)
  Rice plant response rating: 0
Corn (Zea mays); [15]
  Plant response rating, Corn: 20
Corn (Zea mays); [16]
  Plant response rating, Corn: 10
[4]; [17]
  Plant response rating, Pigweed: 100
[4]; [15]
  Plant response rating, Pigweed: 100
[4]; [16]
  Plant response rating, Pigweed: 100
[4]; [18]
  Pigweed plant response rating: 100
[5]; [17]
  Plant response rating, Barnyardgrass: 10
[5]; [15]
  Plant response rating, Barnyardgrass: 40
[5]; [16]
  Plant response rating, Barnyardgrass: 10
[5]; [18]
  Barnyardgrass plant response rating: 100
[6]; [17]
  Plant response rating, Foxtail, Giant: 70
[6]; [15]
  Plant response rating, Foxtail, Giant: 80
[6]; [16]
  Plant response rating, Foxtail, Giant: 30
[6]; [18]
  Foxtail, Giant plant response rating: 100
[7]; [15]
  Plant response rating, Wheat: 50
[7]; [16]
  Plant response rating, Wheat: 10
[8]; 2 g ai/ha
  Plant response rating (scale 0 to 100), Johnsongrass: 0
[8]; 4 g ai/ha
  Plant response rating (scale 0 to 100), Johnsongrass: 0
[8]; 8 g ai/ha
  Plant response rating (scale 0 to 100), Johnsongrass: 0
[8]; 16 g ai/ha
  Plant response rating (scale 0 to 100), Johnsongrass: 5
[9]; 2 g ai/ha
  Plant response rating (scale 0 to 100), Blackgrass: 0
[9]; 4 g ai/ha
  Plant response rating (scale 0 to 100), Blackgrass: 0
[9]; 8 g ai/ha
  Plant response rating (scale 0 to 100), Blackgrass: 0
[9]; 16 g ai/ha
  Plant response rating (scale 0 to 100), Blackgrass: 5
[10]; 2 g ai/ha
  Plant response rating (scale 0 to 100), Wheat: 0
[10]; 4 g ai/ha
  Plant response rating (scale 0 to 100), Wheat: 0
[10]; 8 g ai/ha
  Plant response rating (scale 0 to 100), Wheat: 0
[10]; 16 g ai/ha
  Plant response rating (scale 0 to 100), Wheat: 0
[11]; 2 g ai/ha
  Plant response rating (scale 0 to 100), Lambsquarters: 55
[11]; 4 g ai/ha
  Plant response rating (scale 0 to 100), Lambsquarters: 45
[11]; 8 g ai/ha
  Plant response rating (scale 0 to 100), Lambsquarters: 5
[11]; 16 g ai/ha
  Plant response rating (scale 0 to 100), Lambsquarters: 70
[12]; 2 g ai/ha
  Plant response rating (scale 0 to 100), Velvetleaf: 5
[12]; 4 g ai/ha
  Plant response rating (scale 0 to 100), Velvetleaf: 15
[12]; 8 g ai/ha
  Plant response rating (scale 0 to 100), Velvetleaf: 10
[12]; 16 g ai/ha
  Plant response rating (scale 0 to 100), Velvetleaf: 25
[13]; 2 g ai/ha
  Plant response rating (scale 0 to 100), Crabgrass, Large: 5
[13]; 4 g ai/ha
  Plant response rating (scale 0 to 100), Crabgrass, Large: 5
[13]; 8 g ai/ha
  Plant response rating (scale 0 to 100), Crabgrass, Large: 5
[13]; 16 g ai/ha
  Plant response rating (scale 0 to 100), Crabgrass, Large: 15
[14]; 2 g ai/ha
  Plant response rating (scale 0 to 100), Galium: 50
[14]; 4 g ai/ha
  Plant response rating (scale 0 to 100), Galium: 50
[14]; 8 g ai/ha
  Plant response rating (scale 0 to 100), Galium: 55
[14]; 16 g ai/ha
  Plant response rating (scale 0 to 100), Galium: 60

## Fc1ccc(Oc2ncc(Cl)cn2)c(-c2cc(C(F)(Cl)Cl)on2)c1 [Compound 221]
[1]
  Sedge, Umbrella plant response rating: 95
[2]
  Barnyardgrass plant response rating: 0
[3]
  Ducksalad plant response rating: 100
Rice (Oryza sativa)
  Rice plant response rating: 0
Corn (Zea mays); [15]
  Plant response rating, Corn: 50
Corn (Zea mays); [16]
  Plant response rating, Corn: 20
[4]; [17]
  Plant response rating, Pigweed: 100
[4]; [15]
  Plant response rating, Pigweed: 90
[4]; [16]
  Plant response rating, Pigweed: 90
[4]; [18]
  Pigweed plant response rating: 100
[5]; [17]
  Plant response rating, Barnyardgrass: 20
[5]; [15]
  Plant response rating, Barnyardgrass: 90
[5]; [16]
  Plant response rating, Barnyardgrass: 10
[5]; [18]
  Barnyardgrass plant response rating: 90
[6]; [17]
  Plant response rating, Foxtail, Giant: 50
[6]; [15]
  Plant response rating, Foxtail, Giant: 90
[6]; [16]
  Plant response rating, Foxtail, Giant: 10
[6]; [18]
  Foxtail, Giant plant response rating: 90
[7]; [15]
  Plant response rating, Wheat: 30
[7]; [16]
  Plant response rating, Wheat: 20
[8]; 16 g ai/ha
  Plant response rating (scale 0 to 100), Johnsongrass: 0
[8]; [19]
  Johnsongrass plant response rating: 5
[8]; 62 g ai/ha
  Plant response rating, Johnsongrass: 15
[8]; 125 g ai/ha
  Plant response rating, Johnsongrass: 15
[9]; 16 g ai/ha
  Plant response rating (scale 0 to 100), Blackgrass: 5
[9]; [19]
  Blackgrass plant response rating: 10
[9]; 62 g ai/ha
  Plant response rating, Blackgrass: 5
[9]; 125 g ai/ha
  Plant response rating, Blackgrass: 40
[10]; 16 g ai/ha
  Plant response rating (scale 0 to 100), Wheat: 0
[10]; [19]
  Wheat plant response rating: 0
[10]; [20]
  Wheat plant response rating: 5
[10]; [21]
  Plant response rating, Wheat: 0
[11]; 16 g ai/ha
  Plant response rating (scale 0 to 100), Lambsquarters: 85
[11]; [19]
  Lambsquarters plant response rating: 95
[11]; [20]
  Lambsquarters plant response rating: 95
[11]; [21]
  Plant response rating, Lambsquarters: 98
[12]; 16 g ai/ha
  Plant response rating (scale 0 to 100), Velvetleaf: 70
[12]; [19]
  Velvetleaf plant response rating: 65
[12]; [20]
  Velvetleaf plant response rating: 80
[12]; [21]
  Plant response rating, Velvetleaf: 100
[13]; 16 g ai/ha
  Plant response rating (scale 0 to 100), Crabgrass, Large: 10
[13]; [19]
  Crabgrass, Large plant response rating: 10
[13]; 62 g ai/ha
  Plant response rating, Crabgrass, Large: 25
[13]; 125 g ai/ha
  Plant response rating, Crabgrass, Large: 30
[14]; 16 g ai/ha
  Plant response rating (scale 0 to 100), Galium: 80
[14]; [19]
  Galium plant response rating: 80
[14]; 62 g ai/ha
  Plant response rating, Galium: 100
[14]; 125 g ai/ha
  Plant response rating, Galium: 100
